Data published in patent US11980209B2, “Consumables” (GIVAUDAN SA, priority 2007, dated 2024).

Assays:
[1] = system: perceived sweetness (one panelist trained for sweetness detection); experiment: Paired comparison of 20-100 ppm trilobatin versus 0-1% sucrose (Example 1a); type: in vivo, human
Experimental: Trilobatin (20 ppm, 60 ppm, 100 ppm) in water samples were evaluated for isointensity to sucrose solutions in a concentration of 0, 0.5 and 1% sucrose using a paired comparison method. Samples were paired and tasted left to right with rinsing (water) in between, by one panelist trained for sweetness detection.
The trilobatin samples were compared to either 0%, 0.5%, or 1% sucrose solutions.

[2] = system: perceived sweetness (sweet sensitive panelists); experiment: Sweetness detection threshold of trilobatin in yoghurt (Example 8); type: in vivo, human; conditions: for Sweetness of 500 ppm trilobatin sample: plain nonfat yoghurt
Experimental: Trilobatin was tested by 6 sweet sensitive panelists in plain nonfat yoghurt.
Yoghurt samples were 500 ppm trilobatin, 1% sucrose, and 2% sucrose. Panelists compared the 500 ppm trilobatin sample to each sucrose sample and compared the sweetness, the results are indicated in the table below.

## O=C(CCc1ccc(O)cc1)c1c(O)cc(O[C@@H]2O[C@H](CO)[C@@H](O)[C@H](O)[C@H]2O)cc1O [trilobatin, 1-[4-(beta-D-glucopyranosyloxy)-2,6-dihydroxyphenyl]-3-(4-hydroxyphenyl)-1-propanone]
[1]; 20 ppm trilobatin in water vs 0% sucrose
  Taste of trilobatin samples compared to sucrose: isosweet
[1]; 20 ppm trilobatin in water vs 0.5% sucrose
  Taste of trilobatin samples compared to sucrose: notably less sweet
[1]; 60 ppm trilobatin in water
  isointensity to sucrose, by interpolation: 0.25 % sucrose
[1]; 60 ppm trilobatin in water vs 0% sucrose
  Taste of trilobatin samples compared to sucrose: weakly sweeter
[1]; 60 ppm trilobatin in water vs 0.5% sucrose
  Taste of trilobatin samples compared to sucrose: less sweet
[1]; 100 ppm trilobatin in water vs 0% sucrose
  Taste of trilobatin samples compared to sucrose: sweeter
[1]; 100 ppm trilobatin in water vs 0.5% sucrose
  Taste of trilobatin samples compared to sucrose: isosweet
[1]; 100 ppm trilobatin in water vs 1% sucrose
  Taste of trilobatin samples compared to sucrose: less sweet
[2]; 500 ppm trilobatin in yoghurt
  own sweetness equivalent to sucrose: 1 % sucrose
[2]; vs 1% sucrose yoghurt sample
  Sweetness of 500 ppm trilobatin sample: slightly less sweet/similarly sweet
[2]; vs 2% sucrose yoghurt sample
  Sweetness of 500 ppm trilobatin sample: less sweet
